Values of other authors in patent publication US8349557B2 (priority 2008, dated 2013).
Where two headings read alike, the source gives them in different places.

Experiments:
[1] = test system: lysosomes
[2] = test system: skeletal muscle; conditions: in some patients
[3] = test system: V-ATPase
[4] = test system: cerebellar granule cells; conditions: 24 hours
[5] = test system: rat hepatoma cell line, H-4-II-E cells

Compound | degradation of long-lived proteins [1] | lysosomal pH [1] | autophagic vacuolation in skeletal muscle [2] | V-ATPase activity ([3]; 0.3 nM bafilomycin) | V-ATPase activity ([3]; 10 nM bafilomycin) | V-ATPase activity ([3]; 100 nM bafilomycin (high-dose)) | vacuoles in the cytoplasm ([4]; 0.3 nM bafilomycin) | vacuoles in the cytoplasm ([4]; 10 nM bafilomycin) | effect on macroautophagy / autophagosome formation [5] | effect on macroautophagy / autophagosome formation ([5]; non-starved cells, 100 nM bafilomycin, one hour)
CCN(CC)CCCC(C)Nc1ccnc2cc(Cl)ccc12 (stereo not shown) [chloroquine] | impairs the degradation of long-lived proteins | raises their pH | florid autophagic vacuolation |  |  |  |  |  |  | 
CO/C1=C\C(C)=C\[C@@H](C)[C@@H](O)[C@@H](C)C/C(C)=C/C=C/[C@H](OC)[C@@H]([C@@H](C)[C@@H](O)[C@H](C)[C@@]2(O)C[C@@H](O)[C@H](C)[C@@H](C(C)C)O2)OC1=O [bafilomycin] |  |  |  | 40-50 % of normal | below 10% | completely eliminates V-ATPase activity | not present | accumulation of large, swollen, single-membraned vacuoles in the cytoplasm with electron-dense deposits | explosive autophagosome formations occupying vast portions of the cytoplasm | no significant effect
